Experimental data from the supplement of paper PMC4862054.

Tests used:
Conditions in all cases: incubation time: 72 h
MDA-MB-468 [1] = experiment: drug sensitivity score (DSS), CellTiter-Blue viability (DSS (AUC-based score)); higher = stronger viability inhibition; extreme values may be limits of the assay
Method in brief: (§1)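 Into 384-well plates carrying compound in a 5- or 9-concentration series went 20 µl of breast cancer cell suspension, followed by 72 h of incubation. Adding 2.5 µl CellTiter-Blue per well and incubating 2 h at 37 °C preceded fluorescence measurement at 560/590 nm. After normalisation of each plate to 0.1 % DMSO and a positive kill control, dose-response curves were fitted and the area beneath them taken as the drug sensitivity score.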

CAL-148 [2] = experiment: as above
Method in brief: as §1

BT-474 [3] = experiment: normalised viability (% of control), CellTiter-Blue; higher = more viable cells (100 = DMSO, 0 = benzethonium chloride kill control)
Protocol: (§2)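 DSRT, CellTiter-Blue viability, 72 h incubation. Signal is normalised to DMSO and benzethonium chloride controls. Value is the normalised response at dose 1.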

CAL-85-1 [4] = experiment: as above
Protocol: as §2

HCC1599 = experiment: normalised viability (% of control), CellTiter-Blue; higher = more viable cells (about 100 = DMSO control)
Method in brief: (§3)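 Compound dissolved in 5 µl medium was pre-loaded into 384-well plates, and breast cancer cell lines in 20 µl suspension were seeded on top and incubated 72 h. After adding 2.5 µl CellTiter-Blue reagent for 2 h at 37 °C, fluorescence was read at 560/590 nm. Plates were normalised to vehicle (100) and a positive kill control (0), with Z'-factor quality control. Each value is normalised viability at a single listed concentration from the series.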

BT-474 [5] = experiment: as above
Method in brief: as §3

Hs578T = experiment: as above
Method in brief: as §3

CAL-85-1 [6] = experiment: as above
Method in brief: as §3

CAL-51 = experiment: as above
Method in brief: as §3

MDA-MB-436 = experiment: as above
Method in brief: as §3

BT-549 = experiment: as above
Method in brief: as §3

HDQ-P1 = experiment: as above
Method in brief: as §3

HCC1143 = experiment: as above
Method in brief: as §3

SK-BR-3 = experiment: as above
Method in brief: as §3

MFM-223 = experiment: as above
Method in brief: as §3

MDA-MB-468 [7] = experiment: as above
Method in brief: as §3

HCC1937 = experiment: as above
Method in brief: as §3

CAL-148 [8] = experiment: as above
Method in brief: as §3

MDA-MB-231 = experiment: as above
Method in brief: as §3

DU-4475 = experiment: as above
Method in brief: as §3

MDA-MB-453 = experiment: as above
Method in brief: as §3

CAL-120 = experiment: as above
Method in brief: as §3

## O=C(/C=C/c1cccnc1)NCCCCC1CCN(C(=O)c2ccccc2)CC1 [FK-866]
MDA-MB-468 [1]
  drug sensitivity score: 30.1
CAL-148 [2]
  drug sensitivity score: 9.58
BT-474 [3]; 0.1 nM
  normalised viability: 99.3%
CAL-85-1 [4]; 0.1 nM
  normalised viability: 85.7%
HCC1599; 1 nM
  normalised viability: 116%
HCC1599; 100 nM
  normalised viability: 19.5%
HCC1599; 1000 nM
  normalised viability: 17%
BT-474 [5]; 1 nM
  normalised viability: 112%
BT-474 [5]; 100 nM
  normalised viability: 56.8%
BT-474 [5]; 1000 nM
  normalised viability: 58.2%
Hs578T; 1 nM
  normalised viability: 99.9%
Hs578T; 100 nM
  normalised viability: 15%
Hs578T; 1000 nM
  normalised viability: 15.9%
CAL-85-1 [6]; 0.3 nM
  normalised viability: 103%
CAL-85-1 [6]; 3 nM
  normalised viability: 97.7%
CAL-85-1 [6]; 10 nM
  normalised viability: 91.6%
CAL-51; 0.3 nM
  normalised viability: 113%
CAL-51; 3 nM
  normalised viability: 95.5%
CAL-51; 10 nM
  normalised viability: 72.8%
MDA-MB-436; 1 nM
  normalised viability: 96.2%
MDA-MB-436; 100 nM
  normalised viability: 23.5%
MDA-MB-436; 1000 nM
  normalised viability: 17.7%
BT-549; 1 nM
  normalised viability: 95%
BT-549; 100 nM
  normalised viability: 10.9%
BT-549; 1000 nM
  normalised viability: 10.7%
HDQ-P1; 0.3 nM
  normalised viability: 109%
HDQ-P1; 3 nM
  normalised viability: 112%
HDQ-P1; 10 nM
  normalised viability: 98%
HCC1143; 1 nM
  normalised viability: 85.6%
HCC1143; 100 nM
  normalised viability: 24.4%
HCC1143; 1000 nM
  normalised viability: 21.3%
SK-BR-3; 1 nM
  normalised viability: 101%
SK-BR-3; 100 nM
  normalised viability: 100%
SK-BR-3; 1000 nM
  normalised viability: 111%
MFM-223; 1 nM
  normalised viability: 108%
MFM-223; 100 nM
  normalised viability: 21.2%
MFM-223; 1000 nM
  normalised viability: 20.1%
MDA-MB-468 [7]; 1 nM
  normalised viability: 91.9%
MDA-MB-468 [7]; 100 nM
  normalised viability: 1.9%
MDA-MB-468 [7]; 1000 nM
  normalised viability: 1.73%
HCC1937; 1 nM
  normalised viability: 93.3%
HCC1937; 100 nM
  normalised viability: 64.2%
HCC1937; 1000 nM
  normalised viability: 42.5%
CAL-148 [8]; 0.3 nM
  normalised viability: 96.4%
CAL-148 [8]; 3 nM
  normalised viability: 94.5%
CAL-148 [8]; 10 nM
  normalised viability: 91.4%
MDA-MB-231; 1 nM
  normalised viability: 106%
MDA-MB-231; 100 nM
  normalised viability: 27.9%
MDA-MB-231; 1000 nM
  normalised viability: 23.2%
DU-4475; 0.3 nM
  normalised viability: 104%
DU-4475; 3 nM
  normalised viability: 77.2%
DU-4475; 10 nM
  normalised viability: 86%
MDA-MB-453; 0.3 nM
  normalised viability: 111%
MDA-MB-453; 3 nM
  normalised viability: 31.7%
MDA-MB-453; 10 nM
  normalised viability: 22.3%
CAL-120; 1 nM
  normalised viability: 107%
CAL-120; 100 nM
  normalised viability: 24.7%
CAL-120; 1000 nM
  normalised viability: 23.3%

## Nc1nc(F)nc2c1ncn2[C@@H]1O[C@H](CO)[C@@H](O)[C@@H]1O [Fludarabine]
MDA-MB-468 [1]
  drug sensitivity score: 0
CAL-148 [2]
  drug sensitivity score: 0
BT-474 [3]; 1 nM
  normalised viability: 67.6%
CAL-85-1 [4]; 1 nM
  normalised viability: 92.8%
HCC1599; 10 nM
  normalised viability: 102%
HCC1599; 1000 nM
  normalised viability: 82.6%
HCC1599; 10000 nM
  normalised viability: 89.5%
BT-474 [5]; 10 nM
  normalised viability: 94%
BT-474 [5]; 1000 nM
  normalised viability: 97.4%
BT-474 [5]; 10000 nM
  normalised viability: 103%
Hs578T; 10 nM
  normalised viability: 112%
Hs578T; 1000 nM
  normalised viability: 99.2%
Hs578T; 10000 nM
  normalised viability: 87.2%
CAL-85-1 [6]; 3 nM
  normalised viability: 88%
CAL-85-1 [6]; 30 nM
  normalised viability: 87.2%
CAL-85-1 [6]; 100 nM
  normalised viability: 92.8%
CAL-51; 3 nM
  normalised viability: 100%
CAL-51; 30 nM
  normalised viability: 101%
CAL-51; 100 nM
  normalised viability: 91.9%
MDA-MB-436; 10 nM
  normalised viability: 89%
MDA-MB-436; 1000 nM
  normalised viability: 81.2%
MDA-MB-436; 10000 nM
  normalised viability: 78.4%
BT-549; 10 nM
  normalised viability: 85.1%
BT-549; 1000 nM
  normalised viability: 97.1%
BT-549; 10000 nM
  normalised viability: 81.5%
HDQ-P1; 3 nM
  normalised viability: 107%
HDQ-P1; 30 nM
  normalised viability: 91%
HDQ-P1; 100 nM
  normalised viability: 96.4%
HCC1143; 10 nM
  normalised viability: 75.8%
HCC1143; 1000 nM
  normalised viability: 80%
HCC1143; 10000 nM
  normalised viability: 55.9%
SK-BR-3; 10 nM
  normalised viability: 98.6%
SK-BR-3; 1000 nM
  normalised viability: 93.3%
SK-BR-3; 10000 nM
  normalised viability: 77.8%
MFM-223; 10 nM
  normalised viability: 101%
MFM-223; 1000 nM
  normalised viability: 106%
MFM-223; 10000 nM
  normalised viability: 100%
MDA-MB-468 [7]; 10 nM
  normalised viability: 98.8%
MDA-MB-468 [7]; 1000 nM
  normalised viability: 112%
MDA-MB-468 [7]; 10000 nM
  normalised viability: 98.9%
HCC1937; 10 nM
  normalised viability: 97.5%
HCC1937; 1000 nM
  normalised viability: 84.8%
HCC1937; 10000 nM
  normalised viability: 54.5%
CAL-148 [8]; 3 nM
  normalised viability: 71%
CAL-148 [8]; 30 nM
  normalised viability: 82.6%
CAL-148 [8]; 100 nM
  normalised viability: 87.7%
MDA-MB-231; 10 nM
  normalised viability: 90.9%
MDA-MB-231; 1000 nM
  normalised viability: 89.9%
MDA-MB-231; 10000 nM
  normalised viability: 81.1%
DU-4475; 3 nM
  normalised viability: 91.1%
DU-4475; 30 nM
  normalised viability: 93.2%
DU-4475; 100 nM
  normalised viability: 96.7%
MDA-MB-453; 3 nM
  normalised viability: 113%
MDA-MB-453; 30 nM
  normalised viability: 112%
MDA-MB-453; 100 nM
  normalised viability: 103%
CAL-120; 10 nM
  normalised viability: 82.3%
CAL-120; 1000 nM
  normalised viability: 78.5%
CAL-120; 10000 nM
  normalised viability: 81.5%

## O=C(Cc1ccc(-c2ccc(OCCN3CCOCC3)cc2)cn1)NCc1ccccc1 [KX2-391]
MDA-MB-468 [1]
  drug sensitivity score: 16.6
CAL-148 [2]
  drug sensitivity score: 22.6
BT-474 [3]; 1 nM
  normalised viability: 79.1%
CAL-85-1 [4]; 1 nM
  normalised viability: 84.6%
HCC1599; 10 nM
  normalised viability: 95.6%
HCC1599; 1000 nM
  normalised viability: 62.3%
HCC1599; 10000 nM
  normalised viability: 58.7%
BT-474 [5]; 10 nM
  normalised viability: 114%
BT-474 [5]; 1000 nM
  normalised viability: 56%
BT-474 [5]; 10000 nM
  normalised viability: 66.7%
Hs578T; 10 nM
  normalised viability: 94.4%
Hs578T; 1000 nM
  normalised viability: 15.4%
Hs578T; 10000 nM
  normalised viability: 20.5%
CAL-85-1 [6]; 3 nM
  normalised viability: 92.5%
CAL-85-1 [6]; 30 nM
  normalised viability: 65.1%
CAL-85-1 [6]; 100 nM
  normalised viability: 34.2%
CAL-51; 3 nM
  normalised viability: 114%
CAL-51; 30 nM
  normalised viability: 105%
CAL-51; 100 nM
  normalised viability: 20%
MDA-MB-436; 10 nM
  normalised viability: 98.3%
MDA-MB-436; 1000 nM
  normalised viability: 56.6%
MDA-MB-436; 10000 nM
  normalised viability: 39.2%
BT-549; 10 nM
  normalised viability: 95.5%
BT-549; 1000 nM
  normalised viability: 17.5%
BT-549; 10000 nM
  normalised viability: 20.7%
HDQ-P1; 3 nM
  normalised viability: 112%
HDQ-P1; 30 nM
  normalised viability: 97.7%
HDQ-P1; 100 nM
  normalised viability: 43.2%
HCC1143; 10 nM
  normalised viability: 79.3%
HCC1143; 1000 nM
  normalised viability: 32.3%
HCC1143; 10000 nM
  normalised viability: 39.5%
SK-BR-3; 10 nM
  normalised viability: 102%
SK-BR-3; 1000 nM
  normalised viability: 19.9%
SK-BR-3; 10000 nM
  normalised viability: 19.1%
MFM-223; 10 nM
  normalised viability: 91.2%
MFM-223; 1000 nM
  normalised viability: 40.7%
MFM-223; 10000 nM
  normalised viability: 26.9%
MDA-MB-468 [7]; 10 nM
  normalised viability: 104%
MDA-MB-468 [7]; 1000 nM
  normalised viability: 38.9%
MDA-MB-468 [7]; 10000 nM
  normalised viability: 51.8%
HCC1937; 10 nM
  normalised viability: 108%
HCC1937; 1000 nM
  normalised viability: 16.9%
HCC1937; 10000 nM
  normalised viability: 15.9%
CAL-148 [8]; 3 nM
  normalised viability: 94.8%
CAL-148 [8]; 30 nM
  normalised viability: 91.3%
CAL-148 [8]; 100 nM
  normalised viability: 16.8%
MDA-MB-231; 10 nM
  normalised viability: 98.1%
MDA-MB-231; 1000 nM
  normalised viability: 18.1%
MDA-MB-231; 10000 nM
  normalised viability: 16.3%
DU-4475; 3 nM
  normalised viability: 83.8%
DU-4475; 30 nM
  normalised viability: 80.5%
DU-4475; 100 nM
  normalised viability: 16.1%
MDA-MB-453; 3 nM
  normalised viability: 114%
MDA-MB-453; 30 nM
  normalised viability: 72.6%
MDA-MB-453; 100 nM
  normalised viability: 25%
CAL-120; 10 nM
  normalised viability: 93.5%
CAL-120; 1000 nM
  normalised viability: 21.3%
CAL-120; 10000 nM
  normalised viability: 21.3%
